This is an account of results in patent publication US11180483B2, “Substituted reverse pyrimidine Bmi-1 inhibitors” (PTC Therapeutics, Inc., priority 2012, dated 2021).

Structures are written as SMILES. pEC50: −log10 of the molar value.

The test system of the first series is Bmi-1. The series can be described thus: Sandwich ELISA Assay (Bmi-1 ELISA) in HT-1080 cells. In kind it is cell-based. The procedure, abridged: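 Bmi-1 in lysates was measured by a three-antibody ELISA with TMB, OD450 minus OD570 reference, interpolated on a GST-tagged recombinant Bmi-1 standard curve, 0-8000 pg/mL. Lysates came from HT-1080 cells treated 40-48 h with compound, final DMSO 0.5%.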
On the technique in general: In an ELISA, binding on a coated surface is turned into a signal by an enzyme label.
Consider `Cc1nc2ccccc2n1-c1nc(N)cc(Nc2ccc3c(c2)OC(F)(F)O3)n1` [Cpd 206, N-(2,2-difluoro-1,3-benzodioxol-5-yl)-2-(2-methyl-1H-benzimidazol-1-yl)pyrimidine-4,6-diamine], for which the pEC50 was 7.00 to 8.00. Same read-out and setting: to `Cc1cn2c(-c3nc(N)c(F)c(Nc4ccc(OC(F)F)cc4)n3)c(C)nc2c(C)n1` [Cpd 175, N-[4-(difluoromethoxy)phenyl]-5-fluoro-2-(2,6,8-trimethylimidazo[1,2-a]pyrazin-3-yl)pyrimidine-4,6-diamine] belongs 5.52 to 7.00. Same read-out and setting: to `CCc1nn2ccc(F)cc2c1-c1nc(N)c(F)c(Nc2ccc(OC(F)F)c(F)c2)n1` [Cpd 188, N-[4-(difluoromethoxy)-3-fluorophenyl]-2-(2-ethyl-5-fluoropyrazolo[1,5-a]pyridin-3-yl)-5-fluoropyrimidine-4,6-diamine] belongs 5.52 to 7.00; to `Nc1cc(Nc2ccc(C(F)(F)F)cc2)nc(-n2c(C3CC3)nc3ccccc32)n1` [Cpd 149, 2-(2-cyclopropyl-1H-benzimidazol-1-yl)-N-[4-(trifluoromethyl)phenyl]pyrimidine-4,6-diamine], 7.00 to 8.00; to `Cc1ccc(Nc2nc(-c3c(C)nc4ccc(F)cn34)nc(N)c2F)cc1` [Cpd 253, 5-fluoro-2-(6-fluoro-2-methylimidazo[1,2-a]pyridin-3-yl)-N-(4-methylphenyl)pyrimidine-4,6-diamine], 8.00 to 9.00. Still for that read-out and setting: the result for `COCc1nc2ccccc2n1-c1nc(N)cc(Nc2ccc(C(F)(F)F)cc2)n1` [Cpd 150, 2-[2-(methoxymethyl)-1H-benzimidazol-1-yl]-N-[4-(trifluoromethyl]phenyl]pyrimidine-4,6-diamine] reads 7.00 to 8.00. As for `Cc1nc2ccc(F)cn2c1-c1nc(N)cc(Nc2ccc(OC(F)F)cc2)n1` [Cpd 69, N-[4-(difluoromethoxy)phenyl]-2-(6-fluoro-2-methylimidazo[1,2-a]pyridin-3-yl)pyrimidine-4,6-diamine], the pEC50 was 7.00 to 8.00.

Consider `Nc1cc(Nc2ccc(C(F)(F)F)cc2)nc(-n2c(C3CC3)nc3ccc(F)cc32)n1` [Cpd 82, 2-(2-cyclopropyl-6-fluoro-1H-benzimidazol-1-yl)-N-[4-(trifluoromethyl)phenyl]pyrimidine-4,6-diamine], for which the pEC50 is 7.00 to 8.00. The same measure, in the same setting: the result for `Cc1nc2ncccc2n1-c1nc(N)cc(Nc2ccc(C(F)(F)F)cc2)n1` [Cpd 73, 2-(2-methyl-1H-imidazo[4,5-b]pyridin-1-yl)-N-[4-(trifluoromethyl)phenyl]pyrimidine-4,6-diamine] reads 7.00 to 8.00; that for `Cc1ccc(Nc2nc(-n3c(C4CC4)nc4ccccc43)nc(N)c2F)cc1` [Cpd 276, 2-(2-cyclopropyl-1H-benzimidazol-1-yl)-5-fluoro-N-(4-methylphenyl)pyrimidine-4,6-diamine], 8.00 to 9.00.

`CCc1nc2ccccc2n1-c1nc(N)c(F)c(Nc2ccc(OC(F)F)c(F)c2)n1` [Cpd 124, N-[4-(difluoromethoxy)-3-fluorophenyl]-2-(2-ethyl-1H-benzimidazol-1-yl)-5-fluoropyrimidine-4,6-diamine] showed a pEC50 of 7.00 to 8.00.

For the compound `FC(F)(F)c1nc2ccc(Cl)cn2c1-c1nccc(Nc2ccc(Br)cc2)n1` [Cpd 15, N-(4-bromophenyl)-2-[6-chloro-2-(trifluoromethyl)imidazo[1,2-a]pyridin-3-yl]pyrimidin-4-amine], the pEC50 was 7.00 to 8.00. Still for that read-out and setting: to `Cc1ccc2nc(C)n(-c3nc(N)cc(Nc4ccc(C(F)(F)F)cc4)n3)c2c1` [Cpd 86, 2-(2,6-dimethyl-1H-benzimidazol-1-yl)-N-[4-(trifluoromethyl)phenyl]pyrimidine-4,6-diamine] belongs 7.00 to 8.00; to `Cc1nc2ccc(F)cc2n1-c1nc(N)c(F)c(Nc2ccc(C#N)cc2)n1` [Cpd 192, 4-{[6-amino-5-fluoro-2-(6-fluoro-2-methyl-1H-benzimidazol-1-yl)pyrimidin-4-yl]amino}benzonitrile], 5.52 to 7.00; to `Cc1nc2cc(F)ccc2n1-c1nc(N)c(F)c(Nc2ccc(OC(F)F)cc2)n1` [Cpd 113, N-[4-(difluoromethoxy)phenyl]-5-fluoro-2-(5-fluoro-2-methyl-1H-benzimidazol-1-yl)pyrimidine-4,6-diamine], 7.00 to 8.00. Same read-out and setting: the result for `Cc1nc2ccccc2n1-c1nc(N)c(F)c(Nc2ccc(Cl)cc2)n1` [Cpd 201, N-(4-chlorophenyl)-5-fluoro-2-(2-methyl-1H-benzimidazol-1-yl)pyrimidine-4,6-diamine] reads 7.00 to 8.00; that for `Cc1nc2c(F)cc(F)cc2n1-c1nc(N)c(F)c(Nc2ccc(OC(F)F)cc2)n1` [Cpd 131, N-[4-(difluoromethoxy)phenyl]-2-(4,6-difluoro-2-methyl-1H-benzimidazol-1-yl)-5-fluoropyrimidine-4,6-diamine], 7.00 to 8.00; that for `COc1ccc(Nc2nc(-n3c(C)nc4cc(C#N)ccc43)nc(N)c2F)cc1` [Cpd 228], 7.00 to 8.00. Same read-out and setting: to `Cc1cc2nc(C)n(-c3nc(N)cc(Nc4ccc(C(F)(F)F)cc4)n3)c2cc1C` [Cpd 79, N-[4-(trifluoromethyl)phenyl]-2-(2,5,6-trimethyl-1H-benzimidazol-1-yl)pyrimidine-4,6-diamine] belongs 5.52 to 7.00; to `FC(F)(F)c1nc2ccc(Cl)cn2c1-c1nccc(Nc2ccc(Cl)cc2)n1` [Cpd 17, N-(4-chlorophenyl)-2-[6-chloro-2-(trifluoromethyl)imidazo[1,2-a]pyridin-3-yl]pyrimidin-4-amine], 5.52 to 7.00.

On to `Cc1nc2cc(F)ccc2n1-c1nc(N)c(F)c(Nc2ccc(Cl)cc2)n1` [Cpd 259, N-(4-chlorophenyl)-5-fluoro-2-(5-fluoro-2-methyl-1H-benzimidazol-1-yl)pyrimidine-4,6-diamine], for which the pEC50 is 5.52 to 7.00.

Turning to `Cc1nc2c(F)cc(F)cc2n1-c1nc(N)cc(Nc2ccc(C(F)(F)F)cc2)n1` [Cpd 88, 2-(4,6-difluoro-2-methyl-1H-benzimidazol-1-yl)-N-[4-(trifluoromethyl)phenyl]pyrimidine-4,6-diamine], the negative logarithm of the EC50 (pEC50) was 7.00 to 8.00. Same read-out and setting: to `Cc1nc2ccccn2c1-c1nccc(Nc2ccccc2)n1` [Cpd 6, 2-(2-methylimidazo[1,2-a]pyridin-3-yl)-N-phenylpyrimidin-4-amine] belongs 7.00 to 8.00; to `C=Cc1ccc2nc(C)n(-c3nc(N)cc(Nc4ccc(C(F)(F)F)cc4)n3)c2c1` [Cpd 91, 2-(6-ethenyl-2-methyl-1H-benzimidazol-1-yl)-N-[4-(trifluoromethyl)phenyl]pyrimidine-4,6-diamine], 5.52 to 7.00; to `Cc1nc2ccccn2c1-c1nc(N)c(F)c(Nc2ccc(OC(F)F)c(F)c2)n1` [Cpd 171, N-[4-(difluoromethoxy)-3-fluorophenyl]-5-fluoro-2-(2-methylimidazo[1,2-a]pyridin-3-yl)pyrimidine-4,6-diamine], 5.52 to 7.00.

Turning to `Cc1nc2ccccc2n1-c1nc(NCCO)cc(Nc2ccc(OC(F)F)cc2)n1` [Cpd 52, 2-{[6-{[4-(difluoromethoxy)phenyl]amino}-2-(2-methyl-1H-benzimidazol-1-yl)pyrimidin-4-yl]amino}ethanol], the pEC50 was 5.52 to 7.00.

As for `Cc1nc2ccc(F)cc2n1-c1nc(N)c(F)c(Nc2ccc(Cl)c(F)c2)n1` [Cpd 262, N-(4-chloro-3-fluorophenyl)-5-fluoro-2-(6-fluoro-2-methyl-1H-benzimidazol-1-yl)pyrimidine-4,6-diamine], the pEC50 is 7.00 to 8.00.

`Cc1nc2cc(F)c(F)cc2n1-c1nc(N)cc(Nc2ccc(OC(F)F)cc2)n1` [Cpd 102, N-[4-(difluoromethoxy)phenyl]-2-(5,6-difluoro-2-methyl-1H-benzimidazol-1-yl)pyrimidine-4,6-diamine] showed a pEC50 of 7.00 to 8.00. Take `Cc1nc2c(F)cc(F)cc2n1-c1nc(N)c(F)c(Nc2ccc(C(F)(F)F)cc2)n1` [Cpd 127, 2-(4,6-difluoro-2-methyl-1H-benzimidazol-1-yl)-5-fluoro-N-[4-(trifluoromethyl)phenyl]pyrimidine-4,6-diamine]: the pEC50 was 7.00 to 8.00.

`Nc1nc(-n2c(C3CC3)nc3ncc(F)cc32)nc(Nc2ccc(C(F)(F)F)cc2)c1F` [Cpd 117, 2-(2-cyclopropyl-6-fluoro-1H-imidazo[4,5-b]pyridin-1-yl)-5-fluoro-N-[4-(trifluoromethyl)phenyl]pyrimidine-4,6-diamine]: the pEC50 was 7.00 to 8.00. Still for that read-out and setting: to `Nc1nc(-c2c(C3CC3)nn3ccccc23)nc(Nc2ccc(OC(F)F)cc2)c1F` [Cpd 180, 2-(2-cyclopropylpyrazolo[1,5-a]pyridin-3-yl)-N-[4-(difluoromethoxy)phenyl]-5-fluoropyrimidine-4,6-diamine] belongs 5.52 to 7.00; to `Cc1nc2ccccc2n1-c1nc(N)cc(Nc2ccc(Cl)cc2)n1` [Cpd 209, N-(4-chlorophenyl)-2-(2-methyl-1H-benzimidazol-1-yl)pyrimidine-4,6-diamine], 7.00 to 8.00. The same measure, in the same setting: to `Cc1nc2cc(F)c(F)cc2n1-c1nc(N)c(F)c(Nc2ccc(Cl)cc2)n1` [Cpd 215, N-(4-chlorophenyl)-2-(5,6-difluoro-2-methyl-1H-benzimidazol-1-yl)-5-fluoropyrimidine-4,6-diamine] belongs 5.52 to 7.00. The same measure, in the same setting: the result for `Cc1nc2ccc(F)cc2n1-c1nc(N)c(F)c(Nc2ccc(C(F)(F)F)nc2)n1` [Cpd 183, 5-fluoro-2-(6-fluoro-2-methyl-1H-benzimidazol-1-yl)-N-[6-(trifluoromethyl)pyridin-3-yl]pyrimidine-4,6-diamine] reads 7.00 to 8.00; that for `Cc1nc2ccccc2n1-c1nc(N)c(F)c(Nc2ccc(OC(F)F)cc2)n1` [Cpd 106, N-[4-(difluoromethoxy)phenyl]-5-fluoro-2-(2-methyl-1H-benzimidazol-1-yl)pyrimidine-4,6-diamine], 7.00 to 8.00.

System in the next series: not given
Assay: not given
In turn, `Cc1nc2ccccc2n1-c1nc(N)cc(Nc2ccc3c(c2)OC(F)(F)O3)n1` [Cpd 206, N-(2,2-difluoro-1,3-benzodioxol-5-yl)-2-(2-methyl-1H-benzimidazol-1-yl)pyrimidine-4,6-diamine] had a melting point of 141 to 142 °C. Same read-out and setting: the result for `Cc1cn2c(-c3nc(N)c(F)c(Nc4ccc(OC(F)F)cc4)n3)c(C)nc2c(C)n1` [Cpd 175, N-[4-(difluoromethoxy)phenyl]-5-fluoro-2-(2,6,8-trimethylimidazo[1,2-a]pyrazin-3-yl)pyrimidine-4,6-diamine] reads 141 to 143 °C; that for `CCc1nn2ccc(F)cc2c1-c1nc(N)c(F)c(Nc2ccc(OC(F)F)c(F)c2)n1` [Cpd 188, N-[4-(difluoromethoxy)-3-fluorophenyl]-2-(2-ethyl-5-fluoropyrazolo[1,5-a]pyridin-3-yl)-5-fluoropyrimidine-4,6-diamine], 150 to 152 °C; that for `Nc1cc(Nc2ccc(C(F)(F)F)cc2)nc(-n2c(C3CC3)nc3ccccc32)n1` [Cpd 149, 2-(2-cyclopropyl-1H-benzimidazol-1-yl)-N-[4-(trifluoromethyl)phenyl]pyrimidine-4,6-diamine], 199 to 201 °C. On the same count and under the same terms, the result for `Cc1ccc(Nc2nc(-c3c(C)nc4ccc(F)cn34)nc(N)c2F)cc1` [Cpd 253, 5-fluoro-2-(6-fluoro-2-methylimidazo[1,2-a]pyridin-3-yl)-N-(4-methylphenyl)pyrimidine-4,6-diamine] reads 210 to 212 °C; that for `COCc1nc2ccccc2n1-c1nc(N)cc(Nc2ccc(C(F)(F)F)cc2)n1` [Cpd 150, 2-[2-(methoxymethyl)-1H-benzimidazol-1-yl]-N-[4-(trifluoromethyl]phenyl]pyrimidine-4,6-diamine], 212 to 213 °C; that for `Cc1nc2ccc(F)cn2c1-c1nc(N)cc(Nc2ccc(OC(F)F)cc2)n1` [Cpd 69, N-[4-(difluoromethoxy)phenyl]-2-(6-fluoro-2-methylimidazo[1,2-a]pyridin-3-yl)pyrimidine-4,6-diamine], 136 to 138 °C.

Usually pEC50 stands for the EC50 on a negative log10 scale, so that one unit is a factor of ten. A lower pEC50 goes with a large EC50. The term melting point denotes the temperature of the solid-liquid transition.
